The source of these data is publication PMC12383646, “Identification of Two Critical Contact Residues in a Pathogenic Epitope from Tetranectin for Monoclonal Antibody Binding and Preparation of Single-Chain Variable Fragments” (Biomolecules, 2025).

One experiment concerns 12F1 mAb. Nature of the experiment: Indirect ELISA (iELISA) of 12F1 mAb on coated P5-5-BSA and P5-5 mutant-BSA. It counts as binding, mouse. The following applies: peptide-BSA conjugate coated at 10 µg/mL; 12F1 mAb 1:2000; compared with WT P5-5 and negative control BSA; six repeated experiments (Figure 4). As for the experimental part: The P5-5 and mutants were conjugated to BSA by the EDC conjugating method. Firstly, the P5-5 and other 9 mutant peptide solutions (4 mg/mL in 0.1 M MES buffer, pH 4.7) were separately mixed with BSA solution (10 mg/mL in 0.1 M MES buffer, pH 4.7). Then, the reaction mixtures were all supplemented with 100 μL of EDC solution (10 mg/mL in deionized water) and incubated at 25 °C for 2 h to facilitate conjugation. The haptens were coupled to BSA at a molar ratio of 10:1 [14]. After a two-hour reaction, the resulting mixtures were subjected to dialysis against 0.01 M phosphate-buffered saline (PBS, pH 7.4) for 48 h. The final products were then stored at −20 °C for the following applications. The P5-5 and mutant conjugates were examined using native gel electrophoresis, and the concentration of the complete antigen was determined using the BCA protein assay kit.
Indirect ELISA (iELISA): To identify the key binding epitopes of the prepared mAb to the P5-5 epitope, P5-5-BSA, and P5-5 mutant-BSA, the antigens were coated onto 96-well plates at a concentration of 10 µg/mL [15]. Subsequently, purified 12F1 mAb diluted at 1:2000 in blocking buffer was added to the wells after blocking and washing. Following another washing step, goat anti-mouse IgG-HRP at a 1:5000 dilution in blocking buffer was added and incubated at 37 °C for 1 h. To commence color development, 100 μL of 3,3,5,5-Tetramethylbenzidine (TMB) solution was added to each well, followed by 100 μL of 2 M H2SO4. The absorbance at 450 nm was measured using a microplate reader.
Regarding “NAALYEYLRQ [DA2, P5-5 mutant, position 2 (Asp) mutated to alanine]”, the “binding activity of 12F1 mAb (indirect ELISA, OD 450 nm)” value (“binding activity of 12F1 mAb” below) is reported as “weak binding signals”.

Take “NDAAYEYLRQ [L4A, P5-5 mutant, position 4 (Leu) mutated to alanine]”: the “binding activity of 12F1 mAb” value was “significantly reduced to levels similar to the negative control”.

Regarding “NDALAEYLRQ [Y5A, P5-5 mutant, position 5 (Tyr) mutated to alanine]”, the “binding activity of 12F1 mAb” value is “weak binding signals”.

In the case of “NDALYAYLRQ [E6A, P5-5 mutant, position 6 (Glu) mutated to alanine]”, the “binding activity of 12F1 mAb” value is listed as “weak binding signals”.

For “NDALYEALRQ [Y7A, P5-5 mutant, position 7 (Tyr) mutated to alanine]”, the “binding activity of 12F1 mAb” value is on record as “weak binding signals”.

Take “NDALYEYARQ [L8A, P5-5 mutant, position 8 (Leu) mutated to alanine]”: the “binding activity of 12F1 mAb” value was “significantly reduced to levels similar to the negative control”.

The test system of the next experiment is 12F1 mAb. Nature of the experiment: Indirect competitive ELISA (ic-ELISA) of P5-5 and mutant peptides against 12F1 mAb. It counts as binding, mouse. The following applies: coating P5-5-OVA 5 μg/mL; free peptide competitor 0.61 ng/mL-20 μg/mL; pre-mixed with 12F1 mAb 37 °C 30 min; compared with WT P5-5 (Figure 5). As for the experimental part:
Indirect competitive ELISA (ic-ELISA): the inhibition ability of 12F1 mAb against P5-5 and its mutants was assessed through icELISA [16]. A coating antigen P5-5-OVA solution at a concentration of 5 μg/mL was prepared and dispensed (100 μL) into each well of a 96-well ELISA plate. The plates were then left to incubate at 4 °C overnight. Following washing, 5% (w/v) PBSM was added to each well and incubated at 37 °C for 2 h. The synthesized peptides of P5-5 and its variants were prepared as 1 mg/mL stock solution (dissolved in 0.01M PBS, pH 7.4). These peptides were then serially diluted in PBSM to concentrations of 20 μg/mL, 10 μg/mL, 5 μg/mL, 2.5 μg/mL, 1.25 μg/mL, 625 ng/mL, 312.5 ng/mL, 156.25 ng/mL, 78.13 ng/mL, 39.06 ng/mL, 19.53 ng/mL, 9.77 ng/mL, 4.88 ng/mL, 2.44 ng/mL, 1.22 ng/mL, and 0.61 ng/mL for the competitor in the ic-ELISA assay. Subsequently, 12F1 mAb was mixed thoroughly with the diluted solutions of P5-5 and its mutants at equal volume at 37 °C for 30 min incubation and reaction. Following this, each well was impressed by 100 μL of the mixture, which was then incubated at 37 °C for one hour. The succeeding stages, which included the addition of HRP-goat anti-mouse serum, TMB substrate solution, and stop solution, were carried out as described earlier. The measurement of the OD value was then taken under 450 nm. The IC50 values of the 12F1 monoclonal antibody against synthesized P5-5 and nine other mutant peptides were determined using the four-parameter logistic equations in Prism 9.0 GraphPad software (version 9.0 GraphPad Software), following the established methodology.
Background: An ELISA detects its analyte on a solid surface through an enzyme-linked reagent.
As for “NAALYEYLRQ [DA2, P5-5 mutant, position 2 (Asp) mutated to alanine]”, the “antigen inhibitory capability / antibody binding in ic-ELISA” value is reported as “significantly reduced compared to the WT P5-5”.

Regarding “NDAAYEYLRQ [L4A, P5-5 mutant, position 4 (Leu) mutated to alanine]”, the “antigen inhibitory capability / antibody binding in ic-ELISA” value was “entirely lost their ability to bind antibodies”.

On to “NDALAEYLRQ [Y5A, P5-5 mutant, position 5 (Tyr) mutated to alanine]”, for which the “antigen inhibitory capability / antibody binding in ic-ELISA” value is listed as “significantly reduced compared to the WT P5-5”.

With “NDALYAYLRQ [E6A, P5-5 mutant, position 6 (Glu) mutated to alanine]”, the “antigen inhibitory capability / antibody binding in ic-ELISA” value is “significantly reduced compared to the WT P5-5”.

Regarding “NDALYEALRQ [Y7A, P5-5 mutant, position 7 (Tyr) mutated to alanine]”, the “antigen inhibitory capability / antibody binding in ic-ELISA” value is “significantly reduced compared to the WT P5-5”.

In the case of “NDALYEYARQ [L8A, P5-5 mutant, position 8 (Leu) mutated to alanine]”, the “antigen inhibitory capability / antibody binding in ic-ELISA” value is “entirely lost their ability to bind antibodies”.
